Laboratory results as given in publication PMC8243547 (BMC Complementary Medicine and Therapies, 2021).
Converted amounts (≈) assume the structure as drawn. “And” between values parts separate entries of the source, which are not always exact repeats. Equal entries are not always repeated. Where two headings read alike, the source gives them in different places.

Tests used:
[1] = tested on: chloroquine-sensitive 3D7 strain of P. falciparum; assay: SYBR green I fluorescence-based antiplasmodial assay, Pf3D7; format: cell-based; conditions: Plasmodium falciparum
Experimental: (§1) The cytotoxicity assay was performed using the African green monkey normal kidney Vero cells (ATCC CRL 1586) and murine macrophages Raw 264.7 cells (ATCC #TIB-71) obtained from the American Type Culture Collection (ATCC).
(§2) The culture medium was renewed daily to propagate the culture. Thin blood smears were made and stained with 10% Giemsa solution for 10 min and microscopically examined under oil immersion to monitor cell cycle transition and parasitaemia.
(§3) Before each experiment, synchronized ring stage parasites were obtained by 5% sorbitol (w/v) treatment as previously described.
(§4) The parasite susceptibility was determined in 96-well microtitration plates using the SYBR green I fluorescence-based method with some modifications. Briefly, sorbitol-synchronized ring stage parasites (hematocrit: 1.5%, parasitemia: 1%) were incubated in the presence of two-fold diluted extracts (0.78-100 μg/mL, DMSO 0.5%), fractions (0.39-50 μg/mL, DMSO 0.5%) or compounds (0.15-20 μg/mL, DMSO 0.5%). […] Drug-free culture wells in 0.5% DMSO were considered as positive growth controls. After 72 h of incubation, 50 μL of SYBR Green I lysis solution [Tris (20 mM; pH 7.5) (Sigma–Aldrich), EDTA (5 mM) (Sigma–Aldrich), saponin (0.008%, w/v) (Sigma–Aldrich), Triton X-100 (0.08%, v/v) (Sigma–Aldrich) and SYBR Green (2x) (Life technologies)] were added to each well and the plate was incubated in the dark at 37 °C for 30 min. SYBR green I fluorescence was measured using a Fluoroskan Ascent multi-well plate reader (Thermo scientific) with excitation and emission wavelength bands set at 485 and 538 nm, respectively. […] The resistance indices (RI), defined as the ratio of the EC50 of drug-resistant strain to the EC50 of sensitive strain were calculated.
(§5) Microsoft Excel Software was used to calculate the percentage of inhibition. The EC50 and CC50 values for the in vitro antiplasmodial activity were determined by non-linear regression analysis using GraphPad Prism 5.0 Software.

[2] = tested on: multi-resistant Dd2 strain of P. falciparum; assay: SYBR green I fluorescence-based antiplasmodial assay, PfDd2; format: cell-based; conditions: Plasmodium falciparum
Experimental: as §1, §2, §3, §4, §5

[3] = tested on: African green monkey normal kidney Vero cells; assay: Resazurin-based cytotoxicity assay, Vero cells; conditions: over Vero and Raw 264.7 cells and Pf3D7 and PfDd2 strains
Experimental: as §1
(§6) The cytotoxicity of active natural products was assessed according to the protocol described by. The African green monkey normal kidney Vero cells (ATCC CRL 1586) and murine macrophages Raw 264.7 cells (ATCC #TIB-71) were maintained in T-25 flasks (Corning Incorporated, USA) using complete Dulbecco’s Modified Eagle’s Medium (Sigma-Aldrich, Germany), supplemented with, 10% Fetal Bovine Serum (Sigma-Aldrich, Germany), 0.2% sodium bicarbonate (w/v) (Sigma-Aldrich, Germany) and 1% (v/v) Penicillin-Streptomycin (Sigma-Aldrich, Germany). The cells were kept at 37 °C for 72 h in 5% CO2 incubator, and the medium was renewed each 72 h and the cell density monitored under the inverted fluorescent microscope Etaluma 520 (Etaluma, USA) until the formation of a monolayer. Confluent culture (nearly 90%) was trypsinized (0.05% Trypsin-EDTA, Sigma-Aldrich, Germany), then centrifuged at 1800 rpm for 5 min and the resulting pellet was re-suspended in culture medium. Cells at 10^4cells per well were seeded (100 μL) in 96-well culture plates (Costar, USA) and incubated overnight to allow cell adhesion. Thereafter, 10 μL of serially diluted extracts, fractions (≤200 μg/mL), and compounds (≤50 μg/mL) were added to plate wells in duplicate. The plates were incubated in a humidified and 5% CO2 atmosphere at 37 °C for 48 h. Podophyllotoxin at 20 μM was added as positive control and wells containing untreated cells were included as 100% growth control. Ten microliters of resazurin stock solution (0.15 mg/mL in sterile PBS), were added to each well, and incubated for an additional 4 h. Fluorescence was then read using a Magelan Infinite M200 fluorescence multi-well plate reader (Tecan) with excitation and emission wavelengths at 530 and 590 nm, respectively. The percentage of cell viability was calculated with regard to the negative control, and subsequently used to determine the concentration that reduced 50% of cell viability (CC50) by non-linear regression using the GraphPad Prism software version 5.0 (San Diego, California) as described above. Selectivity indices (SI = CC50/EC50, defining the balance between cytotoxicity and antiplasmodial activity) were calculated for each test substance.
as §5

[4] = in vitro; conditions: African green monkey
Experimental: as §1, §6, §5

[5] = tested on: human liver cell line Huh7; conditions: cited from earlier work
[6] = tested on: normal human cells TIG-1; conditions: read-out: 50% lethal concentration (LC50), TIG-1; cited from earlier work
[7] = tested on: chloroquine-sensitive strain D10 of P. falciparum; parameters: method as in PMID 21503279; conditions: cited from earlier work
[8] = tested on: FabI; parameters: method as in PMID 16722653; conditions: enzyme of fatty acid biosynthesis of P. falciparum; read-out: EC50 of FabI inhibition; cited from earlier work
[9] = Resazurin-based cytotoxicity assay, Raw 264.7 cells; conditions: mouse
Experimental: as §1
as §6, with “Podophyllotoxin at 20 μM was added as positive control and wells containing untreated cells were included as 100% growth control. Ten microliters of resazurin stock solution (0.15 mg/mL in sterile PBS), were added to each well, and incubated for an additional 4 h.” left out, “The percentage of cell viability was calculated with regard to the negative control, and subsequently used to determine the concentration that reduced 50% of cell viability (CC50) by non-linear regression using the GraphPad Prism software version 5.0 (San Diego, California) as described above.” left out
as §5

[10] = tested on: resistant strain W2 of P. falciparum; parameters: method as in PMID 21503279; conditions: cited from earlier work
[11] = tested on: normal human cells HUVE; conditions: read-out: 50% lethal concentration (LC50), HUVE; cited from earlier work
[12] = tested on: multi-resistant Dd2 strain of P. falciparum; parameters: method as in PMID 12064726; conditions: read-out: EC50 against multi-resistant Dd2 strain; cited from earlier work
[13] = tested on: red blood cells; conditions: cited from earlier work
[14] = tested on: chloroquine resistant strain Pf7G8; parameters: method as in PMID 18710482; conditions: read-out: EC50 against chloroquine resistant strain Pf7G8; cited from earlier work
[15] = tested on: P. berghei; conditions: murine malaria model, cited from earlier work
[16] = tested on: chloroquine sensitive strain Pf3D7; parameters: method as in PMID 18710482; conditions: read-out: EC50 against chloroquine sensitive strain Pf3D7; cited from earlier work
[17] = tested on: chloroquine sensitive poW strain of P. falciparum; parameters: method as in PMID 12064726; conditions: read-out: EC50 against chloroquine sensitive poW strain; cited from earlier work
[18] = tested on: PfDd2; parameters: method as in PMID 19015351; conditions: read-out: antiplasmodial potency PfDd2; cited from earlier work
[19] = tested on: Pf3D7; parameters: method as in PMID 19015351; conditions: read-out: antiplasmodial potency Pf3D7; cited from earlier work
[20] = 3D7, isolated compounds and reference drugs (Table 3), 72 h incubation, read-out: EC50 (μM) Pf3D7
[21] = DD2, isolated compounds and reference drugs (Table 3), 72 h incubation, read-out: EC50 (μM) PfDd2
[22] = DD2, 72 h, read-out: EC50 (μM) PfDd2

C[C@@H]1CC[C@H]2[C@@H](C)C(=O)O[C@@H]3O[C@@]4(C)CC[C@@H]1[C@]32OO4 [Artemisinin, reference compound]
EC50 ([1]; 3D7, Table 1 reference drugs, 72 h incubation, read-out: EC50 Pf3D7, reference drugs): 0.014 ± 0.001 µM | EC50 [1, 20]: 0.014 ± 0.001 µM | EC50 ([2]; DD2, Table 1 reference drugs, 72 h incubation, read-out: EC50 PfDd2, reference drugs): 0.018 ± 0.003 µM | EC50 [2, 21]: 0.018 ± 0.003 µM

CCN(CC)CCCC(C)Nc1ccnc2cc(Cl)ccc12 (stereo not drawn) [Chloroquine, reference compound]
EC50 ([1]; 3D7, 72 h, read-out: EC50 (μM) Pf3D7): 0.018 ± 0.002 µM | EC50 ([1]; 3D7, 72 h, read-out: EC50 Pf3D7, reference drugs (μM)): 0.018 ± 0.002 µM | EC50 [2, 22]: 0.449 ± 0.065 µM | EC50 ([2]; DD2, 72 h, read-out: EC50 PfDd2, reference drugs (μM)): 0.449 ± 0.065 µM

O=c1cc(-c2ccc(O)cc2)oc2cc(O)cc(O)c12 [Compound 1, apigenin]
SI (selectivity index) [3]: greater than 9 | CC50 at 48 h [4]: > 185 µM | cytotoxicity on Huh7, in words [5]: no signs of cytotoxicity | CC50 [6]: 110 µM | EC50 against chloroquine-sensitive strain D10 [7]: 25.4 ± 7.9 µg/mL (≈ 94 µM) | EC50 [1, 20]: 19 ± 0.72 µM | EC50 [8]: 50 µM | CC50 at 48 h [9]: > 185 µM | EC50 against resistant strain W2 [10]: 20.2 ± 6.4 µg/mL (≈ 74.7 µM) | CC50 [11]: 110 µM | EC50 [12]: 28.5 µM | membrane disruption on red blood cells, in words [13]: no signs | EC50 [14]: 13 ± 2 µM | EC50 [2, 21]: 16.4 ± 0.52 µM | suppression of P. berghei parasiteamia ([15]; 15 mg/kg/day): 49.23% | suppression of P. berghei parasiteamia ([15]; 35 mg/kg/day): 50.3% | suppression of P. berghei parasiteamia ([15]; 70 mg/kg/day): 69.74% | EC50 [16]: 20 ± 3 µM | EC50 [17]: 19 µM

Oc1ccc([C@H]2Oc3cc(O)cc(O)c3C[C@@H]2O)cc1 [Compound 2, afzelechin]
EC50 [1, 20]: > 200 µM | EC50 [2, 21]: > 200 µM

O=c1c(O)c(-c2ccc(O)cc2)oc2cc(O)cc(O)c12 [Compound 3, kaempferol]
EC50 [1, 20]: > 200 µM | EC50 [2, 21]: > 200 µM

C=C(C)[C@@H]1CC[C@]2(C)CC[C@]3(C)C(CCC4[C@@]5(C)C[C@H](O)[C@H](O)C(C)(C)C5CC[C@]43C)C12 (stereo partly drawn) [Compound 4, 2β,3β-dihydroxylup-20-ene]
EC50 [1, 20]: > 200 µM | EC50 [2, 22]: > 200 µM

COc1c(O)cc2c(=O)oc3c(OC)c(O)cc4c(=O)oc1c2c34 [Compound 6, 3,3′-O-dimethylellagic acid]
SI (selectivity index) [3]: greater than 9 | CC50 at 48 h [4]: > 152 µM | EC50 [1, 20]: 4.27 ± 0.05 µM | CC50 at 48 h [9]: > 152 µM | EC50 [2, 21]: 1.36 ± 0.47 µM

COc1cc([C@@H]2c3cc4c(cc3[C@H](O)[C@H]3COC(=O)[C@H]23)OCO4)cc(OC)c1OC [Podophyllotoxin, reference compound]
CC50 at 48 h [4]: 1.89 µg/mL and 4.56 µM | CC50 at 48 h [9]: 0.76 µg/mL and 1.83 µM

O=c1oc2c(O)c(O)cc3c(=O)oc4c(O)c(O)cc1c4c23 [ellagic acid]
EC50 [18]: 0.351 µM | EC50 [19]: 0.819 µM
